Where two headings read alike, the source gives them in different places.
How the values were obtained:
[1] = Drug metabolism and pharmacokinetic evaluation in human liver microsome suspensions (percentage of compound remaining vs. incubation time); assay type: in vitro ADME; details: human liver microsomes, NADPH, 37° C., after 4 hour, combo incubation with Osimertinib
Procedure: In vitro drug metabolism and pharmacokinetic evaluation of D16-Osimertinib, and D19-Osimertinib against Osimertinib was conducted in Human Liver Microsome suspensions. The stability time course samples were prepared in house and extracted immediately by protein precipitation method using MeCN containing 400 ng/mL carbutomide as the internal standard (IS). The samples were analyzed on a Waters Acquity UPLC system coupled with a Bruker Q-tof mass spectrometer. The peak areas of respective extracted ion chromatograms were used for relative comparison. The sample preparation was performed according to the following procedure: […] The samples were put in 37° C. incubator for 10 minutes. […] The samples were vortexed and centrifuged at 13,000 g for approximately 5 minutes, then supernatants were taken and stored in −20° C. freezer. The sampling at a time point was triplicate. After the last samples were taken and they were placed in −20° C. at least 1 hour. All samples were put into a refrigerator at approximate 4° C. for 30 minutes. The samples were vortexed. Then approximately 100 μL of the supernatants were transferred to corresponding wells of a 96-well plate. The samples were diluted with 100 μL of 0.1% FA in water. The samples were vortexed and briefly centrifuged for LC-HRMS analysis. Sample chamber for LC-HRMS was kept at approximate 4° C. […]

[2] = Reactivity as covalent inhibitor: half-life in buffered aqueous cysteine solution; details: for half-life: PBS buffer with cysteine, 37° C.; for Improvement (%) of t½ in cysteine solution: deuterated compound vs. reference osimertinib
Procedure: The combo solutions were prepared by mixing individual evaluated compounds with reference osimertinib. Then, they were added to PBS buffer solution with cysteine at 37° C. The stability time course samples (in triplicate) were taken and added to prechilled quenching solution and then store at −70° C. freezer. The samples were analyzed on a Waters Acquity UPLC system coupled with a Bruker Q-tof mass spectrometer. The peak areas of respective extracted ion chromatograms were used for relative comparison.

wild-type EGFR = wild-type EGFR (Homo sapiens, UniProt P00533); details: reportedly; cited from earlier work
HepG2 hepatoma cells = assay: Cell-based experiment on inhibition of WT-EGFR: cell proliferation of HepG2 hepatoma cells
Excerpt: (§1) A431 cells are a model human cell line which express abnormally high levels of the wide-type epidermal growth factor receptor (WT EGFR). WT EGFR inhibitors can affect cell prolification of the cells. Similarly the prolification of HepG2 hepatoma cells can be inhibited by WT EGFR inhibitors.

[3] = tested on: A431 human squamous carcinoma cells (WT EGFR); assay: Cell-based experiment on inhibition of WT-EGFR: cell proliferation of A431 cells
Excerpt: as §1

[4] = Monkey pharmacokinetic study on deuteration of indole N-methyl group; assay type: in vivo; details: cynomolgus monkey, blood; male cynomolgus monkeys, single oral administration, 20 mg/Kg; read-out: AUC(0-t) of the parent
Procedure: A total of two (2) cynomolgus monkeys (male) were placed on study. Washout period lasted 7 days between two phases. Each test article was administered to an individual animal via a single oral administration for all groups. The dose levels were 20 mg/Kg. All animals were given detailed clinical examinations prior to administration, and no abnormality was observed. Cage side observation was conducted on all animals twice daily throughout the duration of administration. All animals were weighed before dosing on the day of administration. Blood samples were collected predose and postdose 0.25, 0.5, 1, 2, 3, 4, 6, 8, 12, 24, 36 and 48 h from the femoral vein at appropriate time points for analysis. These samples were analyzed by LC-MS/MS.

[5] = combo solution with osimertinib, read-out: Half-life in cysteine solution, Deuterated (t½ h) (converted)

Sequence of wild-type EGFR (P00533 25-1210): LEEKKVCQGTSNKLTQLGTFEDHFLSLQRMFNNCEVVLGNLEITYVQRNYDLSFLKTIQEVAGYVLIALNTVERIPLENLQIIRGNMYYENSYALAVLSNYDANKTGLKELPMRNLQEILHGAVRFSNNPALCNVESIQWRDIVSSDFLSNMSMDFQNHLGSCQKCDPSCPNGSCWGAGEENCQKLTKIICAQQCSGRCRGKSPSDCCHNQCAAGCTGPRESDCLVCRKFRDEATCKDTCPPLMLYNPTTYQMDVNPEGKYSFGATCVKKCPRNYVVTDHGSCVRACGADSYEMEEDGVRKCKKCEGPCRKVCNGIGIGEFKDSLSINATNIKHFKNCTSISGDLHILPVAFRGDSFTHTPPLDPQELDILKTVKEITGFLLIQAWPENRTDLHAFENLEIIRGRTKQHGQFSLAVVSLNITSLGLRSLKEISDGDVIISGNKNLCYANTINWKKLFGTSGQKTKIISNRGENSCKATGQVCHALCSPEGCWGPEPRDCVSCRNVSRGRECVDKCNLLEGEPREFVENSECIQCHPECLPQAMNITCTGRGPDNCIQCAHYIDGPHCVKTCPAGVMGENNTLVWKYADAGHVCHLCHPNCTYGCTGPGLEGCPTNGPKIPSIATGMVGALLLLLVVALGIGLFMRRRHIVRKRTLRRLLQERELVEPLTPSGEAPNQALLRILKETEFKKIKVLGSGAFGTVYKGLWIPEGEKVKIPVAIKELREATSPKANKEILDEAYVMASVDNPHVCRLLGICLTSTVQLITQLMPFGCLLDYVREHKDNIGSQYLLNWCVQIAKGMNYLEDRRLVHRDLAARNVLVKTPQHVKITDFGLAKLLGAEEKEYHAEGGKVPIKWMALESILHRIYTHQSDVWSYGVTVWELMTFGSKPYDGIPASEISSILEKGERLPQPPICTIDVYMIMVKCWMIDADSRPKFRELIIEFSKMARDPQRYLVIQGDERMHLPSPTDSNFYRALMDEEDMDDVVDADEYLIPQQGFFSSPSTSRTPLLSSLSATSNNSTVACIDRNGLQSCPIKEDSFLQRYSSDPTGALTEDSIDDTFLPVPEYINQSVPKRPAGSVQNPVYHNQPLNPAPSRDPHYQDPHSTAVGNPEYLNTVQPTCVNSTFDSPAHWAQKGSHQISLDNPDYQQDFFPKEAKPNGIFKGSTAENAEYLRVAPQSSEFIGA

SMILES | difference between the concentrations of Osimertinib and the deuterated compound (percentage remaining) [1] [%] | half-life [2, 5] [min] | Improvement (%) of t½ in cysteine solution [2] [%] | further results
[2H]C([2H])([2H])N(c1cc(OC)c(Nc2nccc(-c3cn(C([2H])([2H])[2H])c4ccccc34)n2)cc1NC(=O)C=C)C([2H])([2H])C([2H])([2H])N(C([2H])([2H])[2H])C([2H])([2H])[2H] [D16-osimertinib] | ~26 | – | – | –
C=CC(=O)Nc1cc(Nc2nccc(-c3cn(C)c4ccccc34)n2)c(OC)cc1N(C)CCNC [AZ7550] | – | – | – | affinity towards wild-type EGFR (wild-type EGFR): low affinity towards wild-type EGFR
C=CC(=O)Nc1cc(Nc2nccc(-c3cn(C)c4ccccc34)n2)c(OC)cc1N(C)CCN(C)C [Osimertinib, N-(2-{2-dimethylaminoethyl-methylamino}-4-methoxy-5-{[4-(1-methylindol-3-yl)pyrimidin-2-yl]amino}phenyl)prop-2-enamide] | – | – | – | cell viability (HepG2 hepatoma cells): did not affect the viability of cells; half-life ([2]; reference osimertinib in combo solution with the deuterated compound, read-out: Half-life in cysteine solution, Reference (t½ h) (converted)): 325 min; cell viability [3]: did not affect the viability of cells; AUC(0-t) [4]: 654 ng·h/mL
[2H]C([2H])=C([2H])C(=O)Nc1cc(Nc2nccc(-c3cn(C([2H])([2H])[2H])c4ccccc34)n2)c(OC)cc1N(C)CCN(C)C [D6-osimertinib] | – | 274 | 23 | –

Continued, in another order:

difference between the concentrations of Osimertinib and the deuterated compound (percentage remaining) [1] [%] | half-life [2, 5] [min] | SMILES | Improvement (%) of t½ in cysteine solution [2] [%] | further results
~28 | 165 | [2H]C([2H])=C([2H])C(=O)Nc1cc(Nc2nccc(-c3cn(C([2H])([2H])[2H])c4ccccc34)n2)c(OC)cc1N(C([2H])([2H])[2H])C([2H])([2H])C([2H])([2H])N(C([2H])([2H])[2H])C([2H])([2H])[2H] [D19-osimertinib] | 43 | –
– | 243 | [2H]C([2H])=C([2H])C(=O)Nc1cc(Nc2nccc(-c3cn(C)c4ccccc34)n2)c(OC)cc1N(C)CCN(C)C [D3-osimertinib] | 33 | –
